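Cultured in 96-well plates, cells were exposed to test compound for 48 hours across five concentrations. GI50 = concentration required for 50% inhibition of growth.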 Active and inactive are the calls of the source. Rule as the data show it: active = GI50 up to about 1.1 µM and inactive = higher.
What was measured:
Test in all cases: NCI anticancer screen, dose series, 48 h
HL-60 = test system: HL-60
MCF7 = test system: MCF7
U-251 = test system: U-251
CAKI-1 = test system: CAKI-1
NCI/ADR-RES = test system: NCI/ADR-RES
COLO 205 = test system: COLO 205
OVCAR-8 = test system: OVCAR-8
KM12 = test system: KM12
NCI-H460 = test system: NCI-H460
A498 = test system: A498
TK-10 = test system: TK-10
RPMI-8226 = test system: RPMI-8226
ACHN = test system: ACHN
UACC-62 = test system: UACC-62
HCC 2998 = test system: HCC 2998
SNB-19 = test system: SNB-19
NCI-H522 = test system: NCI-H522
HOP-92 = test system: HOP-92
RXF 393 = test system: RXF 393
NCI-H226 = test system: NCI-H226

Measured: GI50

COc1ccc(C(CC(=O)c2cccs2)C(=O)c2ccc3c(c2)OCO3)cc1 (configuration not stated)
inactive: HL-60 > 100 µM | MCF7 > 100 µM | U-251 > 100 µM | CAKI-1 > 100 µM | NCI/ADR-RES > 100 µM | COLO 205 > 100 µM | OVCAR-8 > 100 µM | KM12 > 100 µM | NCI-H460 > 100 µM | A498 72.1 µM | TK-10 > 100 µM | RPMI-8226 59.8 µM | ACHN > 100 µM | UACC-62 > 100 µM | HCC 2998 > 100 µM

Oc1c(Cl)c(Cl)c(O)c(CCNc2nccs2)c1Cl
inactive: HL-60 6.84 µM | MCF7 2.41 µM | U-251 11.3 µM | SNB-19 17 µM | CAKI-1 11.4 µM | NCI/ADR-RES 19.6 µM | COLO 205 11.3 µM | OVCAR-8 16.6 µM | NCI-H522 2.02 µM | KM12 6.85 µM | HOP-92 32.4 µM | NCI-H460 20.8 µM | TK-10 11.7 µM | RXF 393 7.23 µM | ACHN 6.44 µM | UACC-62 17.1 µM | HCC 2998 16.1 µM

COc1cc[n+](C)cc1
inactive: HL-60 > 100 µM | MCF7 > 100 µM | U-251 > 100 µM | SNB-19 > 100 µM | NCI/ADR-RES > 100 µM | COLO 205 > 100 µM | OVCAR-8 > 100 µM | NCI-H522 > 100 µM | NCI-H226 > 100 µM | KM12 > 100 µM | HOP-92 > 100 µM | NCI-H460 > 100 µM | RXF 393 > 100 µM | RPMI-8226 > 100 µM | UACC-62 > 100 µM | HCC 2998 > 100 µM

Cc1ccc(C2SC(=N)Nc3c2c(C)nn3C(=O)c2ccncc2)cc1 (configuration not stated)
inactive: HL-60 > 10 µM | MCF7 > 10 µM | U-251 > 10 µM | SNB-19 > 10 µM | CAKI-1 > 10 µM | NCI/ADR-RES > 10 µM | COLO 205 > 10 µM | OVCAR-8 > 10 µM | NCI-H522 > 10 µM | NCI-H226 > 10 µM | KM12 > 10 µM | HOP-92 > 10 µM | NCI-H460 > 10 µM | TK-10 > 10 µM | RXF 393 > 10 µM | RPMI-8226 > 10 µM | ACHN > 10 µM | UACC-62 > 10 µM | HCC 2998 > 10 µM

C=C(Nc1ccc([N+](=O)[O-])cc1[N+](=O)[O-])c1c/c(=N\NC(N)=S)c2ccccc2o1
inactive: HL-60 32.8 µM | MCF7 40.6 µM | U-251 61.1 µM | SNB-19 53 µM | CAKI-1 > 100 µM | NCI/ADR-RES 40.9 µM | COLO 205 33.5 µM | OVCAR-8 41.7 µM | NCI-H522 > 100 µM | NCI-H226 28.2 µM | KM12 59.4 µM | HOP-92 29 µM | NCI-H460 > 100 µM | TK-10 > 100 µM | RXF 393 60.3 µM | ACHN 89.5 µM | UACC-62 > 100 µM | HCC 2998 95.9 µM

CN1CC(c2ccccc2)N(CCCCN2CC(c3ccccc3)N(C)CC2c2ccccc2)CC1c1ccccc1 (configuration not stated)
inactive: HL-60 29.3 µM | MCF7 68.7 µM | SNB-19 54.7 µM | CAKI-1 > 100 µM | NCI/ADR-RES 53.8 µM | COLO 205 28.8 µM | OVCAR-8 44.3 µM | NCI-H226 95.7 µM | KM12 50.5 µM | HOP-92 26.8 µM | NCI-H460 18.1 µM | A498 36 µM | TK-10 54.1 µM | RXF 393 21.9 µM | ACHN > 100 µM | UACC-62 30.7 µM | HCC 2998 24.4 µM
